The values below come from ChEMBL document CHEMBL1153424, “Discovery of 4-(benzylaminomethylene)isoquinoline-1,3-(2H,4H)-diones and 4-[(pyridylmethyl)aminomethylene]isoquinoline-1,3-(2H,4H)-diones as potent and selective inhibitors of the cyclin-dependent kinase 4” (J Med Chem, 2009).

Series [1] addresses Cyclin-dependent kinase 1/cyclin B1 (Homo sapiens, UniProt P06493+P14635). In words: (§1) Inhibition of CDK1/Cyclin B1 assessed as inhibition of retinoblastoma susceptibility gene product phosphorylation.
Series [2] addresses Cyclin-dependent kinase 2 (Homo sapiens, UniProt P24941). The series can be described thus: Inhibition of CDK2/Cyclin E assessed as inhibition of retinoblastoma susceptibility gene product phosphorylation.
The subject of series [3] is MCF7. The series can be described thus: cells. Conditions: Homo sapiens, MCF7, 72 h.
Description: Cytotoxicity against human MCF7 cells after 3 days by SRB assay
Series [4] relates to HCT-116. In words: cells. Conditions: Homo sapiens, HCT-116, 72 h.
Description: Cytotoxicity against human HCT116 cells after 3 days by SRB assay
In series [5] the target is Cyclin-dependent kinase 4/cyclin D1 (Homo sapiens, UniProt P11802). In words: (§2) Inhibition of CDK4/Cyclin D1 assessed as inhibition of retinoblastoma susceptibility gene product phosphorylation. Type of series: protein-complex assay.
Sequence of Cyclin-dependent kinase 4/cyclin D1 (Homo sapiens, UniProt P11802) (P11802 whole entry): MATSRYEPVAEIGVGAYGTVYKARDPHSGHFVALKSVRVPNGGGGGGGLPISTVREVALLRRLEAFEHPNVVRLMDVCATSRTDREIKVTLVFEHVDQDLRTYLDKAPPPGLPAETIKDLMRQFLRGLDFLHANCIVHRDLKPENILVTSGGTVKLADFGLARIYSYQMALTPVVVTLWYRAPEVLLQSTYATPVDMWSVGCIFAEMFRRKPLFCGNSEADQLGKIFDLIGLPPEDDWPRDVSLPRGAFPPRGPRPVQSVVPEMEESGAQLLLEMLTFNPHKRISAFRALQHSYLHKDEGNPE
Sequence of Cyclin-dependent kinase 4/cyclin D1 (Homo sapiens, UniProt P11802) (P24385 whole entry, further chain): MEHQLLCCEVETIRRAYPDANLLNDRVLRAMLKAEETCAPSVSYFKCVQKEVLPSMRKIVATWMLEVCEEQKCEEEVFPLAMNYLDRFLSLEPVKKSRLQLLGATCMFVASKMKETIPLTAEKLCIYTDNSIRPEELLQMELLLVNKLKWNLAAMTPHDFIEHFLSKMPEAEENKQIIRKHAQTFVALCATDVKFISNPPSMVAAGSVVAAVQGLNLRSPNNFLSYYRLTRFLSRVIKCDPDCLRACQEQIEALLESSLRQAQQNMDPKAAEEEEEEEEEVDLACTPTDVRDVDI
Series [6] has as its target Cyclin-dependent kinase 1/cyclin B1 (Homo sapiens, UniProt P06493). Described as §1.
Series [7] in a line: Metabolic stability in Sprague-Dawley rat liver microsome assessed as half life after 15 mins using NADPH/UDPGA cofactor. Type of series: ADME. The following applies: liver microsomes. In general terms: Microsomes from liver hold many membrane-bound enzymes, among them those of drug oxidation.
Series [8] can be described thus: Metabolic stability in Sprague-Dawley rat liver microsome assessed as half life after 15 mins using NADPH cofactor. Type of series: ADME. The following applies: liver microsomes.
Series [9] can be described thus: Selectivity for CDK4/Cyclin D1 over CDK2/Cyclin E.
A short description of series [10]: Selectivity for CDK4/Cyclin D1 over […].
Series [11] concerns the target Cyclin-dependent kinase 4/cyclin D1 (Homo sapiens, UniProt P11802+P24385). Described as §2. Type of series: protein-complex assay.
The target in series [12] is Serine/threonine-protein kinase mTOR (Homo sapiens, UniProt P42345). The series can be described thus: Inhibition of mTOR.
Series [13] deals with Tyrosine-protein kinase Lck (Homo sapiens, UniProt P06239). In words: Inhibition of LCK.
Sequence of Tyrosine-protein kinase Lck (P06239 whole entry): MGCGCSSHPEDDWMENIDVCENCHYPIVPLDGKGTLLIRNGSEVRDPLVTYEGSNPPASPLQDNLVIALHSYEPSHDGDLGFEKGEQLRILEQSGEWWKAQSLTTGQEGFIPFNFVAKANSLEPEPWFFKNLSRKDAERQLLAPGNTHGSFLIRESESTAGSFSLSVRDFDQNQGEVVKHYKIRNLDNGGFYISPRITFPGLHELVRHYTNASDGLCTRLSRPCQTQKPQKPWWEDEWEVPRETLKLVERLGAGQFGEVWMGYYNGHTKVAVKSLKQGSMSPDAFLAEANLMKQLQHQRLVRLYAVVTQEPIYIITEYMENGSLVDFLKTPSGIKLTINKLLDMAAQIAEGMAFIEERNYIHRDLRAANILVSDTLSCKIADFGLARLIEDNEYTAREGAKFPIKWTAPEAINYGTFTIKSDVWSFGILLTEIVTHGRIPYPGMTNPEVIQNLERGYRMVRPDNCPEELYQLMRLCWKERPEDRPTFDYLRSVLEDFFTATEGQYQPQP
The nature of series [14]: Inhibition of p70S6.
For series [15], the target named is Signal transducer and activator of transcription 3 (Homo sapiens, UniProt P40763). In words: Inhibition of STAT3.
Sequence of Signal transducer and activator of transcription 3 (P40763 whole entry): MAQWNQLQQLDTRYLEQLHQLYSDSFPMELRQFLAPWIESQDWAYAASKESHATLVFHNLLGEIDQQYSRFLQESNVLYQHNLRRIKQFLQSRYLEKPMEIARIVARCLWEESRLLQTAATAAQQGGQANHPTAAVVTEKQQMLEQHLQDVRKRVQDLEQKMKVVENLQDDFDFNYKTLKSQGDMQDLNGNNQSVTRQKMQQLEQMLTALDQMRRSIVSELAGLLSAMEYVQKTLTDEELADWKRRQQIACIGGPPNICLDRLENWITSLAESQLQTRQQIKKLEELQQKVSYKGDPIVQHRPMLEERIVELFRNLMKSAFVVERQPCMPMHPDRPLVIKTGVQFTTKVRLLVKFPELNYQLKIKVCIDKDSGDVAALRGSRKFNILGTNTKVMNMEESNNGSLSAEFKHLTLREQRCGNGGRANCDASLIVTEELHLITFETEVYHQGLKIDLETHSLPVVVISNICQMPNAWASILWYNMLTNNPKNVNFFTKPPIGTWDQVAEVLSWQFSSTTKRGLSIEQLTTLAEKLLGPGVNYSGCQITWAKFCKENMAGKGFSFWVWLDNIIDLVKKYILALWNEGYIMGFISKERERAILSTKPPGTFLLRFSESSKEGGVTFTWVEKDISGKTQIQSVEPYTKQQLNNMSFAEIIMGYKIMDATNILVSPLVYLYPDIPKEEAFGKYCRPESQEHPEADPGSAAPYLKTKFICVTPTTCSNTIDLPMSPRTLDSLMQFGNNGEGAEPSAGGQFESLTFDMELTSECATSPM
In series [16] the target is Protein kinase C theta type (Homo sapiens, UniProt Q04759). In words: Inhibition of PKCtheta.
Series [17] addresses RAC-alpha serine/threonine-protein kinase (Homo sapiens, UniProt P31749). In words: Inhibition of AKT.
Series [18] has as its target MAP kinase-activated protein kinase 2 (Homo sapiens, UniProt P49137). In words: Inhibition of MK2.
In series [19] the target is Proto-oncogene tyrosine-protein kinase Src (Homo sapiens, UniProt P12931). In words: Inhibition of Src.
Series [20] deals with Mitogen-activated protein kinase kinase kinase 8 (Homo sapiens, UniProt P41279). In words: Inhibition of Tpl2.
In series [21] the target is Tyrosine-protein kinase Lyn (Homo sapiens, UniProt P07948). The series can be described thus: Inhibition of LYN.
Sequence of Tyrosine-protein kinase Lyn (P07948 whole entry): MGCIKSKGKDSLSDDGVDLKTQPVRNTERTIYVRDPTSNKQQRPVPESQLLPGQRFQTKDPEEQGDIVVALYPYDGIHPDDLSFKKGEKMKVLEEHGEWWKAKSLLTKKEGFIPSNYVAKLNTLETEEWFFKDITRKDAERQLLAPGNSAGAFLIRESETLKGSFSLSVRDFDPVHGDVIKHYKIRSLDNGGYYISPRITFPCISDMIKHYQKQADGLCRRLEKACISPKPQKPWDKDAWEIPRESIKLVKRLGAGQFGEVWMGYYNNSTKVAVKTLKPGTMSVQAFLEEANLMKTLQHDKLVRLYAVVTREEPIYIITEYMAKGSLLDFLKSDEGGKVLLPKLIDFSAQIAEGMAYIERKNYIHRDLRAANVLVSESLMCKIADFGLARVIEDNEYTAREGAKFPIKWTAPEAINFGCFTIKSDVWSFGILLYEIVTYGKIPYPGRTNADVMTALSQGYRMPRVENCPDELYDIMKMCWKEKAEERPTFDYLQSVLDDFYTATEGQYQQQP

Sequence of Cyclin-dependent kinase 1/cyclin B1 (Homo sapiens, UniProt P06493) (P06493 whole entry): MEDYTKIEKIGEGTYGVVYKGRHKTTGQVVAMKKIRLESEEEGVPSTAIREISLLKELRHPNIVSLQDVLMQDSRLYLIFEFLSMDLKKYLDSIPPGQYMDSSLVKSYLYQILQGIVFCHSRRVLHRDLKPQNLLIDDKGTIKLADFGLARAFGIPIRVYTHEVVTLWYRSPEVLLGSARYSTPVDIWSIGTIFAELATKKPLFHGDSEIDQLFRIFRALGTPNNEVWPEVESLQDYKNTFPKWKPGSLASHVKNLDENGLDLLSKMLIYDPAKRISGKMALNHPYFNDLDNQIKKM
Sequence of Cyclin-dependent kinase 1/cyclin B1 (Homo sapiens, UniProt P06493) (P14635 whole entry, further chain): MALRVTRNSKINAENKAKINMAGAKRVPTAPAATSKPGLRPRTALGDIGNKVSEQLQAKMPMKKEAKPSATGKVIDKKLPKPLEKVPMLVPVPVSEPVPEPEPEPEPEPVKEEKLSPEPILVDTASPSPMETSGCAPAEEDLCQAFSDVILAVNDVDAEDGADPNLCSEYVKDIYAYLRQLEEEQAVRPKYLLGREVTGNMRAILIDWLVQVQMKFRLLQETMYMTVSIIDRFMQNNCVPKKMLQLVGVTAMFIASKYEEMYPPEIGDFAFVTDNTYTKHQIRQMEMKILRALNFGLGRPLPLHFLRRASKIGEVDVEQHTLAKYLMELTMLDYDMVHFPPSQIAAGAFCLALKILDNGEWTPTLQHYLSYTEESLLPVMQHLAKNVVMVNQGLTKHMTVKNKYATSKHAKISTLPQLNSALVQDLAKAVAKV
Sequence of Cyclin-dependent kinase 1/cyclin B1 (Homo sapiens, UniProt P06493+P14635) (P06493 whole entry): as the sequence (P06493 whole entry) above
Sequence of Cyclin-dependent kinase 1/cyclin B1 (Homo sapiens, UniProt P06493+P14635) (P14635 whole entry): as the sequence (P14635 whole entry, further chain) above
Sequence of Cyclin-dependent kinase 4/cyclin D1 (Homo sapiens, UniProt P11802+P24385) (P11802 whole entry): as the sequence (P11802 whole entry) above
Sequence of Cyclin-dependent kinase 4/cyclin D1 (Homo sapiens, UniProt P11802+P24385) (P24385 whole entry): as the sequence (P24385 whole entry, further chain) above
Sequence of MAP kinase-activated protein kinase 2 (P49137 whole entry): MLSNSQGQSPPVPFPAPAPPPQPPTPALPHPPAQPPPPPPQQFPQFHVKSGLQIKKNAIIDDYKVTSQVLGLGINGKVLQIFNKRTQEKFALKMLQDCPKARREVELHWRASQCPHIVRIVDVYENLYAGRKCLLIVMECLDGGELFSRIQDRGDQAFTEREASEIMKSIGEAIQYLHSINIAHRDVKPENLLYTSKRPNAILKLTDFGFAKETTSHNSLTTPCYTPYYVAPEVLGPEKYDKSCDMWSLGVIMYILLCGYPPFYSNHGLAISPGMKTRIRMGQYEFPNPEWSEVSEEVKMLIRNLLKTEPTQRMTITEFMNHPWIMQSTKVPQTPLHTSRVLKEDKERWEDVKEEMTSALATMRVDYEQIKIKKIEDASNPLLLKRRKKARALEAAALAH

One may read the IC50 as the point on the concentration scale where inhibition reaches its midpoint. As to `COc1ccc(CN/C=C2\C(=O)NC(=O)c3ccc(Cl)cc32)cc1O`, the IC50 in [1] and in series [2] was < 50000 nM throughout.
In the case of `Cc1ccc(CN/C=C2\C(=O)NC(=O)c3ccc(I)cc32)cc1O`, the IC50 in [3] stood at 8200 nM; in [4], 6700 nM; in [5], 30 nM; in [2], 13600 nM.
Turning to `O=C1NC(=O)c2ccc(I)cc2/C1=C/NCc1ccc(-c2ccccc2)c(O)c1`, the IC50 in series [3] came to 880 nM; in [4], 420 nM.
Consider `O=C1NC(=O)c2ccc(I)cc2/C1=C/NCc1ccc(-c2ccncc2)c(O)c1`, for which the IC50 was > 50000 nM in [6]; 1500 nM in series [3]; 2300 nM in series [4]; 8 nM in series [5]; > 50000 nM in [2].
Consider `COc1coc(CN/C=C2\C(=O)NC(=O)c3ccc(Br)cc32)cc1=O`, for which the figures for the IC50 in [6], in series [5] and in series [2] were > 50000 nM, 1300 nM and 16900 nM, respectively.
`CCOc1ccc(CN/C=C2\C(=O)NC(=O)c3ccc(Br)cc32)cc1O`: the IC50 in series [1] is < 50000 nM.
Usually half-life stands for the time needed for the level to fall by half in the phase considered. As for `O=C1NC(=O)c2ccc(I)cc2/C1=C/NCc1cc(O)c(-c2ccoc2)cn1`, the figures for the half-life in [7] and in series [8] were 22 min and > 30 min, respectively. The IC50 in [3] stood at 2700 nM; in [4], 550 nM.
For `O=C1NC(=O)c2ccc(C3CCCC3)cc2/C1=C/NCc1cc(O)c(-c2ccoc2)cn1`, the concentration for half-maximal inhibition (IC50) is 3100 nM in [6], 830 nM in [3], 810 nM in series [4] and < 5 nM in series [5].
As to `COc1cnc(CN/C=C2\C(=O)NC(=O)c3ccc(I)cc32)cc1O`, the half-life in series [7] and in [8] was > 30 min throughout. For the same molecule, the IC50 was 14700 nM in series [6], 1000 nM in series [3], 1300 nM in [4] and 10 nM in series [5].
Consider `O=C1NC(=O)c2ccc(I)cc2/C1=C/NCc1ccc(-c2cccnc2)c(O)c1`, for which the IC50 in [6] was > 50000 nM; in [3], 1100 nM; in series [4], 440 nM; in series [5] it was 10 nM.
Regarding `COc1ccc(CN(C)/C=C2\C(=O)NC(=O)c3ccc(Br)cc32)cc1O`, in series [1], the IC50 is < 50000 nM.
Turning to `COc1ccc(CN/C=C2\C(=O)NC(=O)c3ccc(Br)cc32)cc1O`, the Ratio IC50 in series [9] and in series [10] was 1600 in each case. For the same molecule, the IC50 is < 50000 nM in [1], 30 nM in [5] and < 50000 nM in series [2].
In the case of `O=C1NC(=O)c2ccccc2/C1=C/NCc1ccc(O)c(O)c1`, the IC50 in [6] was 36600 nM; in series [5] it was 1200 nM.
For the molecule `O=C1NC(=O)c2ccccc2/C1=C/NCc1cccc(O)c1`, the IC50 in series [1] was < 50000 nM; in [2], 16900 nM.
Regarding `COc1ccc(CN/C=C2\C(=O)NC(=O)c3ccc(F)cc32)cc1O`, the IC50 in series [1] was < 50000 nM; in series [2], 6600 nM.
Turning to `CCCOc1cnc(CN/C=C2\C(=O)NC(=O)c3ccc(I)cc32)cc1O`, the half-life in series [7] and in [8] was > 30 min each time. Besides, the IC50 in series [6] was 25300 nM; in series [3], 880 nM; in [4], 730 nM; in series [5], 30 nM.
For the molecule `CCCOc1ccc(CN/C=C2\C(=O)NC(=O)c3ccc(I)cc32)cc1O`, the half-life in series [7] is 15 min; in [8], > 30 min. Also, the IC50 is > 50000 nM in [6]; 1800 nM in [3]; 650 nM in series [4]; 20 nM in [5]; 2600 nM in series [2].
Regarding `COc1ccc(CN/C=C2\C(=O)NC(=O)c3ccc(I)cc32)cc1O`, the half-life in series [7] amounted to 6 min; in series [8], 18 min. The IC50 in series [3] was 3700 nM; in series [4] it was 2000 nM.
In the case of `COc1ccc(CN/C=C2\C(=O)NC(=O)c3ccc(-n4cccc4)cc32)cc1O`, the IC50 in series [2] was 3100 nM.
In the case of `O=C1NC(=O)c2ccc(Br)cc2/C1=C/NCc1cc[nH]c(=O)c1`, in series [6], the IC50 was > 50000 nM.
As for `COCCOc1ccc(CN/C=C2\C(=O)NC(=O)c3ccc(Br)cc32)cc1O`, the IC50 in series [1] is < 50000 nM; in series [5], 40 nM; in [2], < 50000 nM.
As for `Nc1ccc(CN/C=C2\C(=O)NC(=O)c3ccc(Br)cc32)cc1O`, the IC50 in series [1] is < 50000 nM.
Consider `CCCOc1cnc(CN/C=C2\C(=O)NC(=O)c3ccc(C(C)(C)C)cc32)cc1O`, for which the IC50 was 6200 nM in [6], 700 nM in series [3], 430 nM in series [4] and 20 nM in [5].
As for `CCCOc1ccc(CN/C=C2\C(=O)NC(=O)c3ccc(I)cc32)nc1O`, the half-life in series [7] and in series [8] was > 30 min in each case. The IC50 in series [6] turned out to be 10100 nM; in series [3], 1400 nM; in [4], 670 nM; in series [5] it was 20 nM; in [2], 700 nM.
Take `CC(C)(C)c1ccc2c(c1)/C(=C/NCc1cc(O)c(-c3ccccc3)cn1)C(=O)NC2=O`: the IC50 in series [3] was found to be 700 nM; in series [4], 150 nM; in series [5], 30 nM.
Consider `O=C1NC(=O)c2ccc(I)cc2/C1=C/NCc1ccc(-c2ccco2)c(O)c1`, for which the IC50 in [6] was > 50000 nM; in series [3], 700 nM; in [4], 380 nM; in series [5], 100 nM.
As for `O=C1NC(=O)c2ccc(I)cc2/C1=C/NCc1ccc(-c2ccccn2)c(O)c1`, the IC50 is > 50000 nM in [6]; 540 nM in [3]; 250 nM in series [4]; 19300 nM in series [5]; > 50000 nM in series [2].
In the case of `COc1ccc(CN/C=C2\C(=O)NC(=O)c3ccc(-c4ccccc4)cc32)cc1O`, the IC50 in series [6] is 34700 nM; in [5] it was 10 nM; in series [2] it was 25900 nM.
`COc1ccc(CN/C=C2\C(=O)NC(=O)c3ccc(-c4ccoc4)cc32)cc1O`: the IC50 turned out to be 2 nM in series [5] and 1100 nM in series [2].
As for `O=C1NC(=O)c2ccccc2/C1=C/NCc1ccc(O)cc1`, the IC50 in series [11] was < 50000 nM; in series [2], 17300 nM.
As for `CC(C)(C)c1ccc2c(c1)/C(=C/NCc1cc(O)c(-c3ccoc3)cn1)C(=O)NC2=O`, the IC50 in [6] came out at 9500 nM; in series [3] it was 1400 nM; in series [4] it was 480 nM; in series [5] it was 20 nM.
Turning to `O=C1NC(=O)c2ccc(Br)cc2/C1=C/NCc1ccc(O)c(O)c1`, the figures for the IC50 in series [1], in series [5] and in series [2] were < 50000 nM, 40 nM and < 50000 nM, respectively.
Take `O=C1NC(=O)c2ccccc2/C1=C/Nc1ccc(O)c(O)c1`: in series [5], the IC50 is 7800 nM.
For `CCCOc1cnc(CN/C=C2\C(=O)NC(=O)c3ccc(C4CCCC4)cc32)cc1O`, the IC50 in [6] is 3100 nM; in [3], 300 nM; in series [4] it was 150 nM; in series [5] it was < 5 nM.
`COc1ccc(CN/C=C2\C(=O)NC(=O)c3ccc(-c4ccsc4)cc32)cc1O`: the Ratio IC50 in [9] worked out at 9000; in [10], 11000.
Consider `COc1ccc(CN/C=C2\C(=O)NC(=O)c3ccccc32)cc1O`, for which the IC50 in series [6] worked out at 48700 nM; in series [5], 190 nM; in series [2], 6900 nM.
Turning to `O=C1NC(=O)c2ccc(I)cc2/C1=C/NCc1ccc(-c2ccoc2)c(O)c1`, the IC50 was 18000 nM in [12]; > 30000 nM in series [13]; > 30000 nM in [14]; 1700 nM in series [15]; 25900 nM in [16]; 10200 nM in series [17]. For the same molecule, the IC50 was 19000 nM in series [18]; 24400 nM in series [6]; > 30000 nM in series [19]; 60 nM in [5]; > 4000 nM in [20]; 8500 nM in [21]. Moreover, the half-life was 18 min in series [7] and > 30 min in series [8].
Consider `COc1cc(CN/C=C2\C(=O)NC(=O)c3ccc(Br)cc32)cc(O)c1OC`, for which the IC50 in series [1] was < 50000 nM; in [5], 7 nM; in series [2], < 50000 nM.
Take `COc1cnc(CN/C=C2\C(=O)NC(=O)c3ccc(I)cc32)nc1O`: the IC50 in series [6] was > 50000 nM; in series [3], > 50000 nM; in series [4], > 50000 nM; in series [5], 440 nM; in [2], > 50000 nM.
With `COc1ccc(C(C)N/C=C2\C(=O)NC(=O)c3ccc(Br)cc32)cc1O` (centres undefined), the IC50 in series [1] is < 50000 nM; in [5], 370 nM; in series [2], < 50000 nM.
On to `O=C1NC(=O)c2ccccc2/C1=C/NCCc1ccc(O)c(O)c1`, for which the IC50 in series [5] was found to be 16200 nM.
In the case of `CCCOc1ccc(CN/C=C2\C(=O)NC(=O)c3ccc(Br)cc32)cc1O`, in series [2], the IC50 came to 34500 nM.
